Among the data in BindingDB's records for doi:10.1021/acsmedchemlett.0c00369 (Shenyang Pharmaceutical University, 2021) are IC50 values, retold here.

Each structure is given as a SMILES string.

For the test, the target named is Histone deacetylase 2 (Homo sapiens, UniProt Q92769). Put plainly: Inhibition of recombinant full length C-terminal FLAG-tagged human HDAC2 expressed in baculovirus infected Sf9 cells using Boc-Lys(Ac)-AMC as substrate preincubated for 15 mins followed by substrate addition and measured after 60 mins by fluorescence based assay.
Sequence of Histone deacetylase 2 (Q92769 whole entry): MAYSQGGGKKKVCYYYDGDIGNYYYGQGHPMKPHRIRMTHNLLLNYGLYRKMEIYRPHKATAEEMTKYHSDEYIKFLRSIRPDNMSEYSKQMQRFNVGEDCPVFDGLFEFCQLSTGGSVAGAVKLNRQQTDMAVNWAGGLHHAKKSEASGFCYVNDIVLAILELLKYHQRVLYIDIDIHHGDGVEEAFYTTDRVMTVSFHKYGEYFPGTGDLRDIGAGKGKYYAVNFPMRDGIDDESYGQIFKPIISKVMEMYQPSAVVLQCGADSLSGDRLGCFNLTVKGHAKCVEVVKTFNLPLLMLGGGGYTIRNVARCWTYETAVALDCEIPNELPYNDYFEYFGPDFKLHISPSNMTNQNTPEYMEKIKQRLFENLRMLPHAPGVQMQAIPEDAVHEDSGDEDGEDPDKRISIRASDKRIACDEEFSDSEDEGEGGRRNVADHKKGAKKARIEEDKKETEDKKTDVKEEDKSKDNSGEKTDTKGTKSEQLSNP

What is called IC50 is the concentration that inhibits the measured activity by half. With `O=NC(Cc1ccc(O)c(Br)c1)C(=O)NCCSSCCNC(=O)C(Cc1ccc(O)c(Br)c1)N=O` (stereo unspecified) [3-(3-bromo-4-hydroxy-phenyl)-N-[2-(2-{3-(3-bromo-4-hydroxy-phenyl)-2-[hydroxyimino]-propionylamino}-ethyldisulfanyl)-ethyl]-2-[hydroxyimino]-propionamide], the IC50 stood at 33 nM.
